Experimental data reported in patent publication US8841004B2, “Binaphthyl compound and organic light emitting element using the same” (Canon Kabushiki Kaisha, priority 2007, dated 2014).
In brackets after ≈: the same amount, converted by molar mass.

Assay: Solubility in chlorobenzene heated at 130° C.
Format: physicochemical
Experimental: Solubility of Example Compound A-02 in chlorobenzene heated at 130° C. was examined.
Comparative Compound H-2 (Comparative Example 2), Comparative Compound H-3 (Comparative Example 3) and Comparative Compound H-5 (Comparative Example 5) were respectively synthesized and solubility in chlorobenzene was examined in the same manner as in Example 1-(C). The results are shown in Table 3 along with those of Examples 1 to 3.

Question: With `CC1(C)c2ccccc2-c2ccc(-c3ccc4cc(-c5ccc6cc(-c7ccc8cc(-c9ccc%10c(c9)C(C)(C)c9ccccc9-%10)ccc8c7)ccc6c5)ccc4c3)cc21` [Comparative Compound H-3] as the compound, how does the “Solubility (chlorobenzene, 130° C.)” value read?
Answer: less than 0.6 g/L

Question: Which “Solubility (chlorobenzene, 130° C.)” value does the source give for `CC1(C)c2ccccc2-c2ccc(-c3ccc4c(c3)C(C)(C)c3cc(-c5ccc6c(c5)C(C)(C)c5cc(-c7ccc8cc(-c9ccc%10ccccc%10c9)ccc8c7)ccc5-6)ccc3-4)cc21` [Example Compound B-18] here?
Answer: 9400 µg/mL (≈ 11.3 mM)

Question: With `CC1(C)c2ccccc2-c2ccc(-c3ccc4cc(-c5ccc6cc(-c7ccc8c(c7)C(C)(C)c7ccccc7-8)ccc6c5)ccc4c3)cc21` [Comparative Compound H-2] as the compound, how does the “Solubility (chlorobenzene, 130° C.)” value read?
Answer: 3300 µg/mL (≈ 5.17 mM)

Question: Which “Solubility (chlorobenzene, 130° C.)” value does the source give for `CC1(C)c2ccccc2-c2ccc(-c3ccc4c(c3)C(C)(C)c3cc(-c5ccc6cc(-c7ccc8ccccc8c7)ccc6c5)ccc3-4)cc21` [Example Compound A-02] here?
Answer: 16000 µg/mL (≈ 25 mM)

Question: With `CC1(C)c2cc(-c3ccc4c(c3)C(C)(C)c3cc(-c5ccc6ccccc6c5)ccc3-4)ccc2-c2ccc(-c3ccc4c(c3)C(C)(C)c3cc(-c5ccc6ccccc6c5)ccc3-4)cc21` [Comparative Compound H-5] as the compound, how does the “Solubility (chlorobenzene, 130° C.)” value read?
Answer: 3500 µg/mL (≈ 4.21 mM)
